pEC50, pIC50: −log10 of the molar value. Where two headings read alike, the source gives them in different places.
What was measured:
HPK1 = HPK1 (Homo sapiens, UniProt Q92918); assay: HPK1 HTRF kinase assay; format: biochemical; details: 1000 µM ATP, 50 nM HPK1, STK1 substrate; for IC50: HPK1, IC50 (nM); for pIC50: read-out: HPK1, IC50
Procedure: The reaction was initiated by adding 50 nM HPK1. After 120 minutes of reaction, the assay was terminated by adding 10 µL of Detection Mix.
The ratio of the signal at 665 nm to the signal at 615 nm was converted to the percentage of inhibition. Inhibition % = (maximum value - sample value) / (maximum value - minimum value)×100. The minimum value refers to the value measured in a well without enzyme but with DMSO and substrate, and the maximum value refers to the value measured in a well with DMSO, enzyme and substrate. IC50 values were calculated by XLFit (version 5.3.1.3) in Excel. Equation: Y = Bottom + (Top - Bottom) / (1 + (IC50/X) ^ HillSlope).

human Pan T cells = assay: Human Pan T cell IL-2 ELISA; format: cell-based; details: read-out: IL-2 release, EC50
Procedure: A compound was dissolved in DMSO to 10 mM, and then diluted three-fold with DMSO to 9 dosages in a 96-well plate. Then, 10 µL of the diluted compound sample was transferred to a 96-well plate with 90 µL of cell culture medium, and the plate was shaken for 5 minutes. Then, 5 µL of the diluted compound sample was transferred to a 96-well plate with 120 µL of cell culture medium, and the plate was shaken for 5 minutes. According to the experimental design diagram, 50 µL of the diluted compound sample was transferred to a cell plate. Final concentrations of the compound in this assay were 10000.00, 5000, 2500, 1250, 625, 312.5, 156.25, 78.125 and 39.063 nM.
The assay was conducted in a 96-well plate. On the first day of the assay, Anti-CD3 was added to the 96-well plate and incubated in a 4 °C refrigerator overnight. On the second day of the assay, human Pan T cells were recovered, centrifuged and counted. The cell density was adjusted to 1*10^6 cells/ml. Then, 100 µL of cells were added to the 96-well plate washed with PBS and added with Anti-CD3; according to the experimental design diagram, 50 µL of diluted Anti-CD28 and 50 µL of the diluted compound were added to each well, centrifuged, and the cell plate was placed and incubated in an incubator for 48 hours; after 48 hours, the plate was centrifuged and the supernatant was collected for IL-2 ELISA.
The signal value of light absorption was converted into a multiple. Multiple = sample value/the average value of control wells. The average value of control wells refers to the value measured in wells with DMSO added. EC50 values were calculated by XLFit (version 5.3.1.3) in Excel. Equation: Y=Bottom + (Top-Bottom) / (1 + (EC50/X) ^ HillSlope). Table 6. Results of cellular activity of the compounds

[1] = Homo sapiens, T-cell, 48 h, Anti-CD3 and Anti-CD28, supernatant IL-2 ELISA

HPK1, sequence (Q92918 whole entry, species assumed): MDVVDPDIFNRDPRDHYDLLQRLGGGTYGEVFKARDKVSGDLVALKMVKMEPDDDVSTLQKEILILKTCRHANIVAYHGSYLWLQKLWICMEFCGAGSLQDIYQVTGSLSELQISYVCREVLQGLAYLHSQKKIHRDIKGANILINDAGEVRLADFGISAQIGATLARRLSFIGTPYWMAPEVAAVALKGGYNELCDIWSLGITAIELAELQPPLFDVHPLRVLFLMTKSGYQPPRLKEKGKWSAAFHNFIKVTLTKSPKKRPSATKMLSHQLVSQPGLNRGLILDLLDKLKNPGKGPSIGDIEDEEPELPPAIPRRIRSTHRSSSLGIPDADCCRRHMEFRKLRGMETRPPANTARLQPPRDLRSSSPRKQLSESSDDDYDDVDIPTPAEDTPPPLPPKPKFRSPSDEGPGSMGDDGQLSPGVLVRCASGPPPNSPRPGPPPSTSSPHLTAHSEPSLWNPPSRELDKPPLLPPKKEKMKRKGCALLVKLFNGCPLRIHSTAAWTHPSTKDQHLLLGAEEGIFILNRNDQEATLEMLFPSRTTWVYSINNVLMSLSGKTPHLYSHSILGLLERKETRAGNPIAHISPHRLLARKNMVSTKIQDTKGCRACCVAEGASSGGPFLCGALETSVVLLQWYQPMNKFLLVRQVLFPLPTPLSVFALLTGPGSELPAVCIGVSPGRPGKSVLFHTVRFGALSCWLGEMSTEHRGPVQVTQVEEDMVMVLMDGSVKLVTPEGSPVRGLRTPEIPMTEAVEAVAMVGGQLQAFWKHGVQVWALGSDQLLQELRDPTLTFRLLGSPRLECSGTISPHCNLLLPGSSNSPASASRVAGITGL

| pEC50 (human Pan T cells; [1]) | Compound | also measured |
| --- | --- | --- |
| – | Cc1ccn2c(-c3cc4c(c5c3CNC5=O)Nc3ccc(N5CCOC(C(C)(C)O)C5)cc3C4(C)C)cnc2c1F (single isomer, unassigned) [Example 89] | IC50 (HPK1): 8.13 nM |
| – | COC1CCCn2c(-c3cc4c(c5c3CNC5=O)Nc3ccc(N5CCOCC5)cc3C4(C)C)cnc21 (single isomer, unassigned) [Example 91] | IC50 (HPK1): 4.24 nM |
| 8.68 | CC1(C)c2cc(N3CCOC(C(C)(C)O)C3)ccc2Nc2c1cc(-c1cnc3cccnn13)c1c2C(=O)NC1 (centres unmarked) [Example 19] | pIC50 (HPK1): 8.20 |
| 8.66 | CC1(C)c2cc(N3CCOC(C(C)(C)O)C3)ccc2Nc2c1cc(-c1cnn3cccnc13)c1c2C(=O)NC1 (centres unmarked) [Example 22] | pIC50 (HPK1): 7.95 |
| – | Cc1ccnn2c(-c3cc4c(c5c3CNC5=O)Nc3ccc(N5CCOC(C(C)(C)O)C5)cc3C4(C)C)cnc12 (centres unmarked) [Example 33] | pIC50 (HPK1): 7.94 |
| – | CC1(C)c2cc(-c3cnn4cccnc34)c3c(c2Nc2cccc(OC4CCNC4)c21)C(=O)NC3 (centres unmarked) [Example 58] | pIC50 (HPK1): 5.38 |
| – | COc1ccnc2c(-c3cc4c(c5c3CNC5=O)Nc3ccc(N5CCOCC5)cc3C4(C)C)cnn12 [Example 66] | pIC50 (HPK1): 7.96 |
| 7.14 | CC1(C)c2cc(N3CCOCC3)ccc2Nc2c1cc(-c1cnc3c(C4COC4)nccn13)c1c2C(=O)NC1 [Example 188] | – |
| 8.24 | COc1ccn2c(-c3cc4c(c5c3CNC5=O)Nc3ccc(N5CCOCC5)cc3C4(C)C)cnc2n1 [Example 189] | – |
| 7.72 | CC1(C)c2cc(N3CCOCC3)ccc2Nc2c1cc(-c1cnc3c(C#N)nccn13)c1c2C(=O)NC1 [Example 192] | – |
| 8.02 | CC1(C)c2cc(N3CCOCC3)ccc2Nc2c1cc(-c1cnc3c(F)c(C(F)F)ccn13)c1c2C(=O)NC1 [Example 193] | – |
| 8.37 | COc1nccn2c(-c3cc4c(c5c3CNC5=O)Nc3ccc(N5CCN6CCOCC6C5)cc3C4(C)C)cnc12 (centres unmarked) [Example 194] | – |
| 8.43 | COCC1CN(c2ccc3c(c2)C(C)(C)c2cc(-c4cnc5c(OC)nccn45)c4c(c2N3)C(=O)NC4)CCO1 (centres unmarked) [Example 195] | – |
| – | CO[C@H]1CCCn2c(-c3cc4c(c5c3CNC5=O)Nc3ccc(N5CC6CCC(C5)O6)cc3C4(C)C)cnc21 [Example 196] | pEC50 (human Pan T cells; Anti-CD3 and Anti-CD28, 48 hours, supernatant IL-2 ELISA): 7.57 |
| 7.96 | CC1(C)c2cc(N3CCOCC3)ccc2Nc2c1cc(-c1cnc3nc(C(F)F)ccn13)c1c2C(=O)NC1 [Example 197] | – |
| 8.28 | CC1(C)c2cc(N3CCOCC3)ccc2Nc2c1cc(-c1cnc3c(F)c(C#N)ccn13)c1c2C(=O)NC1 [Example 198] | – |
| 7.62 | CC1(C)c2cc(N3CCOCC3)ccc2Nc2c1cc(-c1cnc3c(OC4CC4)nccn13)c1c2C(=O)NC1 [Example 199] | – |
| 8.85 | COCC1(O)CCN(c2ccc3c(c2)C(C)(C)c2cc(-c4cnc5c(OC)nccn45)c4c(c2N3)C(=O)NC4)CC1 [Example 200] | – |
| 8.57 | COc1nccn2c(-c3cc4c(c5c3CNC5=O)Nc3ccc(N5CCOC6(CC6)C5)cc3C4(C)C)cnc12 [Example 201] | – |
| 8.18 | CC1(C)c2cc(N3CCOC(C4(O)CC4)C3)ccc2Nc2c1cc(-c1cnc3cc(C(F)F)ccn13)c1c2C(=O)NC1 (centres unmarked) [Example 205] | – |
| 7.00 | CC1(C)c2cc(N3CCOCC3)ccc2Nc2c1cc(-c1cnc3cc(N4CCC4)ccn13)c1c2C(=O)NC1 [Example 206] | – |
| 7.64 | CC1(C)c2cc(N3CCOCC3)ccc2Nc2c1cc(-c1cnc3cc(N4CC(F)C4)ccn13)c1c2C(=O)NC1 [Example 207] | – |
| 7.80 | CC(C)(O)c1ccn2c(-c3cc4c(c5c3CNC5=O)Nc3ccc(N5CCOCC5)cc3C4(C)C)cnc2c1 [Example 208] | – |

| pEC50 (human Pan T cells; [1]) | Compound | also measured |
| --- | --- | --- |
| 8.48 | COc1c(F)ccn2c(-c3cc4c(c5c3CNC5=O)Nc3ccc(N5CCOCC5)cc3C4(C)C)cnc12 [Example 209] | – |
| 7.26 | CC1(C)c2cc(N3CCOCC3)ccc2Nc2c1cc(-c1cnc3c(N4CCC4)nccn13)c1c2C(=O)NC1 [Example 211] | – |
| 8.27 | C#Cc1ccn2c(-c3cc4c(c5c3CNC5=O)Nc3ccc(N5CCOCC5)cc3C4(C)C)cnc2c1 [Example 216] | – |
| 7.72 | CC1(C)c2cc(N3CCOCC3)ccc2Nc2c1cc(-c1cnc3cc(OC4COC4)ccn13)c1c2C(=O)NC1 [Example 217] | – |
| 8.19 | CC1(C)c2cc(N3CCOCC3)ccc2Nc2c1cc(-c1cnc3c(C(F)F)nccn13)c1c2C(=O)NC1 [Example 222] | – |
| 7.48 | CC1(C)c2cc(N3CCOCC3)ccc2Nc2c1cc(-c1cnc3c(OC4CNC4)nccn13)c1c2C(=O)NC1 [Example 224] | – |
| 8.09 | COc1ccn2c(-c3cc4c(c5c3CNC5=O)Nc3ccc(N5CCOCC5)cc3C4(C)C)cnc2c1F [Example 225] | – |
| 8.06 | CC1(C)c2cc(N3CCOCC3)ccc2Nc2c1cc(-c1cnn3cc(C#N)ccc13)c1c2C(=O)NC1 [Example 237] | – |
| 7.24 | COc1nccn2c(-c3cc4c(c5c3CNC5=O)Nc3ccc(N5CCOCC5=O)cc3C4(C)C)cnc12 [Example 238] | – |
| 8.04 | CC1(C)c2cc(N3CCOCC3)ccc2Nc2c1cc(-c1cnc3cc(C#N)cnn13)c1c2C(=O)NC1 [Example 246] | – |
| 8.04 | CC1(C)c2cc(N3CCOCC3)ccc2Nc2c1cc(-c1cnc3nc(N4CC(F)C4)ccn13)c1c2C(=O)NC1 [Example 247] | – |
| 8.72 | Cn1cnc2c(-c3cc4c(c5c3CNC5=O)Nc3ccc(N5CCOCC5)cc3C4(C)C)cncc21 [Example 248] | – |
| 8.33 | CC1(C)c2cc(N3CCOCC3)ccc2Nc2c1cc(-c1nnc3cc(C#N)ccn13)c1c2C(=O)NC1 [Example 249] | – |
| 8.51 | CC1(C)c2cc(N3CCOCC3)ccc2Nc2c1cc(-c1cnc3ncccn13)c1c2C(=O)NC1 [Example 250] | – |
| 8.19 | Cc1c(-c2cc3c(c4c2CNC4=O)Nc2ccc(N4CCOCC4)cc2C3(C)C)cnc2c1NCCO2 [Example 251] | – |
| 7.27 | CC1(C)c2cc(N3CCOCC3)ccc2Nc2c1cc(-c1cnc3nc(N4CC(O)C4)ccn13)c1c2C(=O)NC1 [Example 253] | – |
| 7.55 | CC1(C)c2cc(N3CCOCC3)ccc2Nc2c1cc(-c1cnc3nc(C4CC4)ccn13)c1c2C(=O)NC1 [Example 254] | – |
| 8.30 | COc1nccn2c(-c3cc4c(c5c3CNC5=O)Nc3ccc(C5CNC(=O)C5)cc3C4(C)C)cnc12 (centres unmarked) [Example 255] | – |
| 7.80 | CC1(O)CCN(c2ccc3c(c2)C(C)(C)c2cc(-c4cnc5nc(C(F)F)ccn45)c4c(c2N3)C(=O)NC4)CC1 [Example 256] | – |
| 6.81 | CN(C)C(=O)c1ccc2c(c1)C(C)(C)c1cc(-c3cnc4nc(C(F)F)ccn34)c3c(c1N2)C(=O)NC3 [Example 257] | – |
| 8.21 | CC1(C)c2cc(N3CCOCC3)ccc2Nc2c1cc(-c1cnc3c(=O)n(C(F)F)ccn13)c1c2C(=O)NC1 [Example 258] | – |
| 7.89 | COc1nccn2c(-c3cc4c(c5c3CCNC5=O)Nc3ccc(N5CCOCC5)cc3C4(C)C)cnc12 [Example 280] | – |
| 7.36 | CC1(C)c2cc(N3CCOCC3)ccc2Nc2c1cc(-c1cnc3nc(C(F)F)ccn13)c1c2C(=O)NCC1 [Example 282] | – |

| Compound | pEC50 (human Pan T cells; [1]) | also measured |
| --- | --- | --- |
| Cc1ccn2c(-c3cc4c(c5c3CNC5=O)Nc3ccc(N5CCOC(C(C)(C)O)C5)cc3C4(C)C)cnc2c1F (single isomer, unassigned) [Example 88] | 7.91 | IC50 (HPK1): 11.6 nM |
| COC1CCCn2c(-c3cc4c(c5c3CNC5=O)Nc3ccc(N5CCOCC5)cc3C4(C)C)cnc21 (single isomer, unassigned) [Example 90] | 8.20 | pIC50 (HPK1): 8.17 |
| COc1nccn2c(-c3cc4c(c5c3CNC5=O)Nc3ccc(N5C6CCC5COC6)cc3C4(C)C)cnc12 [Example 232] | 7.96 | – |
